US20150004106A1, “ACNE treatment method” (priority 2013, published 2015)

What was measured:
acne = experiment: case study of topical beta-sitosterol treatment of acne; format: in vivo; conditions: for reduction in acne: end of study, after four weeks of application; for mean reduction in acne: first week
Source text: This vehicle containing the beta-sitosterol is applied to the sites of the subcutaneous gland disorders on a twice daily basis (morning and evening).
FIG. 4 is a table indicating the results found in a case study.
The study used a cross section of the population having a distribution of sexes, ages, and areas being affected.
At the end of the study, after four weeks of application, the women found a fifty percent reduction with the men showing a forty-five percent reduction.

[1] = alcohols; cited from earlier work

With `CCC(CCC(C)C1CCC2C3CC=C4CC(O)CCC4(C)C3CCC12C)C(C)C` (stereo not drawn) [beta-sitosterol, 17-(5-Ethyl-6-methylheptan-2-yl)-10-13-dimethyl-2,3,4,7,8,9,11,12,14,16,17-deodeccahydrom-1H-cyclopental(alpha)phenanthren-3-ol] the “change of acne in the affected areas” value (acne; all cases, start of use) was “immediate reduction in the acne”, the “change of acne with continuous use” value (acne; all of the subjects, continuous use) was “further reductions in acne” and the reduction in acne (acne; men) was “forty-five”. For the same compound, the “mean reduction in acne” value (acne; men) was 10%, the reduction in acne (acne; women) was “fifty” and the “mean reduction in acne” value (acne; women) was 10%. The solubility [1] was “hydrophobic and soluble in alcohols”.
